Source: patent publication US20120208782A1, “Modulation of Growth of Bifidobacteria Using a Combination of Oligosaccharides Found in Human Milk” (Wyeth LLC, priority 2011, published 2012)

Experiments:
[1] = test system: Bifidobacterium Infantis ATCC 15697; test: Growth of Bifidobacterium infantis in RCM without glucose, with or without test ingredient (optical density at 595 nm, 30 hours); format: cell-based; details: for growth in wells containing the test ingredient versus control medium: optical density 595 nm; for effect on the growth of Bifidobacterium infantis (summary statement): summary in the description
Method: (§1) Reinforced Clostridia Medium (RCM) was used for cultivating the bifidobacteria. RCM without glucose was used as a control medium. RCM is a well-known medium for cultivating and enumerating anaerobes, which was first formulated by Hirsch and Grinstead, J. Dairy Res., 21:101 (1954). The test ingredients were 2′-fucosyllactose, 6′-sialyllactose and 3′-sialyllactose dissolved in the control medium at the following concentrations: 1 mg/ml 2′-fucosyllactose; 1 mg/ml 6′-sialyllactose; and, 2 mg/ml 3′-sialyllactose. The bifidobacteria were separately grown overnight anaerobically in RCM, and were then measured and diluted to an optical density of 0.1 as measured by absorbance spectroscopy at 595 nm, and were then further diluted ten-fold to make a working stock. For each test, 50 μl of working stock was added to each well of a 96 well plate containing either 200 μl of control medium (48 wells) or 200 μl test ingredient solution (48 wells). The plate was grown anaerobically for 30 hours and optical density was read at abs 595 nm every 15 minutes. The values for like wells were averaged and plotted over time (FIGS. 1, 3, and 5-7), and the area under the curve (AUC) was calculated over the 30-hour period (FIGS. 2 and 4).

[2] = test system: Bifidobacterium Breve ATCC 15700; test: Growth of Bifidobacterium breve in RCM without glucose, with or without test ingredient (optical density at 595 nm, 30 hours); format: cell-based
Method: as §1

Structure (SMILES) | growth in wells containing the test ingredient versus control medium ([1]; 1 mg/ml 6′-sialyllactose, after 12 hours, FIG. 5) | effect on the growth of Bifidobacterium infantis (summary statement) [1] | growth in wells containing the test ingredient versus control medium ([1]; 2 mg/ml 3′-sialyllactose, after 8 hours, FIG. 7) | growth in wells containing the test ingredient versus control medium ([2]; 2 mg/ml 3′-sialyllactose, after 6 hours, optical density 595 nm, FIG. 6) | effect on the growth of Bifidobacterium breve (summary statement) ([2]; summary in the description)
CC(=O)N[C@H]1[C@H]([C@H](O)[C@H](O)CO)O[C@@](OC[C@H]2O[C@@H](O[C@H]3[C@H](O)[C@@H](O)[C@H](O)O[C@@H]3CO)[C@H](O)[C@@H](O)[C@H]2O)(C(=O)O)C[C@@H]1O [6′-sialyllactose] | significantly greater | stimulates the growth |  |  | 
CC(=O)N[C@H]1[C@H]([C@H](O)[C@H](O)CO)O[C@@](O[C@H]2[C@@H](O)[C@@H](CO)O[C@@H](O[C@H]3[C@H](O)[C@@H](O)C(O)O[C@@H]3CO)[C@@H]2O)(C(=O)O)C[C@@H]1O (stereo partly drawn) [3′-sialyllactose] |  | stimulates the growth | significantly greater | significantly greater | stimulates the growth
